The results in this text go back to patent US20230024108A1, “ADENOSINE A2A RECEPTOR ANTAGONISTS” (Teon Therapeutics, Inc., priority 2019, published 2023).

One test addresses T1, human A2A AdoR (Homo sapiens, UniProt P29274).
T1 construct: purchased PerkinElmer RBHA2AM400UA
As to the kind of experiment: Adenosine receptor binding assay, A2A ([3H]-CGS-21680). Conditions: membranes of HEK-293 cells expressing human A2A AdoR; read-out: hA2A IC50. In short, it runs like this:
(§1)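 Filtration binding on membranes: A2A in HEK-293 with 6 nM [3H]-CGS-21680, Tris pH 7.4, 2 h; A2B in HEK-293 with 8 nM [3H]-DPCPX, HEPES pH 7.0, 1 h; A1 in CHO-K1 with 1 nM [3H]-DPCPX, HEPES pH 7.4, 1 h; room temperature. 8-point dilutions; IC50 converted to Ki (Cheng–Prusoff).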

The next test concerns the target T2, A1AdoR (Homo sapiens, UniProt P30542).
T2 construct: purchased PerkinElmer ES-010-M400UA
T2 sequence (P30542 1-326): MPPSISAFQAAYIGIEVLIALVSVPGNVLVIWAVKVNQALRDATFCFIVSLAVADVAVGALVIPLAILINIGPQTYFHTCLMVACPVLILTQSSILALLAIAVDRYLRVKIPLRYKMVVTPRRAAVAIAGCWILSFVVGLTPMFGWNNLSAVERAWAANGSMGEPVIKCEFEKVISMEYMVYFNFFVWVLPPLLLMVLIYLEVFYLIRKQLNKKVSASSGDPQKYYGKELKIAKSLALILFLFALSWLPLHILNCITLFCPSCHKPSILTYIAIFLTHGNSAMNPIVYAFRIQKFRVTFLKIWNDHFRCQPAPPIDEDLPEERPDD
As to the kind of experiment: Adenosine receptor binding assay, A1 ([3H]-DPCPX). To be noted: ratio A1 vs A2A binding. In short, it runs like this:
as §1

A further test concerns phospho-CREB (pCREB). As to the kind of experiment: Human whole blood phospho-CREB (pCREB) assay / modulation of pCREB in human immune cells. It is filed as cell-based. To be noted: agonist (NECA or CGS-21680)-stimulated human blood cells. On the procedure:
Fresh human blood samples are derived from healthy volunteers and processed in heparin tubes. 67.5 ul of whole blood is aliquoted to each well in a 96-well plate and incubated at 37° C. for 30 min. Testing compounds are diluted with DMSO to make 8-point 3-fold serial dilution and 3.5 ul (20×) is added to each well. Cells are incubated with the compounds at 37° C. for 30 min. NECA (5 uM) is then added to each well and cells are incubated for 30 min at 37° C. Following the stimulation, cells are transferred to a 96-well deep well plates and fixed with 1 ml/well of lyse/fix buffer (1×) (BD Biosciences #558049) with vigorous shake at 37° C. for 10 min. Cells are centrifuged at 600 g for 6 min and washed twice with PBS, followed by addition of 800 ul/well Perm buffer III (BD Biosciences #558050). Cells are then pelleted at 600 g for 6 min, washed with FACS buffer (PBS+0.2% BSA+1 mM EDTA) and stained for 40 min at room temperature in the dark with an antibody cocktail containing PE mouse anti-human CD3 (BD Biosciences #555333, 1 ul/well), FITC mouse anti-human CD4 (BD Biosciences #5555346, 1 ul/well), PerCP-Cy™5.5 mouse anti-human CD8 (BD Biosciences #565310, 1 ul/well) and phospho-CREB (Ser133) (87G3) Rabbit mAb (Alexa Fluor® 647 Conjugate, CST #14001, 0.5 ul/well). Cells are then washed twice with FACS buffer and acquired on a flow cytometer (Sony Cell Sorter SH800). Data were analyzed using FlowJo version 9. The level of CREB phosphorylation from unstimulated cells (Low control: LC) and NECA-stimulated cells (High control: HC) are determined as mean fluorescent intensity (MFI) in stimulated condition/mean fluorescent intensity in unstimulated condition. % Inhibition is calculated as (MFI of HC-MFI of assay well)/(MFI of HC-MFI of LC)×100%. Data are analyzed and IC50s calculated using GraphPad Prism 5 and the model “log(inhibitor) vs. response—Variable slope”.
The A2A receptor is known to mediate CREB phosphorylation.
Venous blood from healthy volunteers, all of whom signed an informed consent approved by the Ethics Committee (FOR—UIC-BV-050-01-01 ICF HBS HD Version 5.0), was obtained via ImmuneHealth (Centre Hospitalier Universitaire Tivoli, La Louviere,
15 Belgium). Peripheral blood cells were treated with A2AR agonists CGS-21680 or NECA (Sigma-Aldrich, Diegem, Belgium), and a serial dilution of compounds disclosed herein (all used stock solutions at 10 mM in DMSO). All dilutions were prepared in RPMI1640 medium (with UltraGlutamine; Lonza, Venders, Belgium), and cells were incubated with compounds in a 37° C. humidified tissue culture incubator with 5% CO2.
After stimulation, cells were fixed and permeabilized, followed by intracellular staining using mouse anti-human pCREB antibodies (Clone J151-21; BD Biosciences) at room temperature. Data were acquired using an LSRFortessa flow cytometer (BD Biosciences) and analyzed using FlowJo software (FlowJo, LLC, Ashland, Oregon).

The target in a further test is T3, human A2B AdoR (Homo sapiens, UniProt P29275).
T3 construct: purchased PerkinElmer ES-013-M400UA
T3 sequence (P29275 1-332): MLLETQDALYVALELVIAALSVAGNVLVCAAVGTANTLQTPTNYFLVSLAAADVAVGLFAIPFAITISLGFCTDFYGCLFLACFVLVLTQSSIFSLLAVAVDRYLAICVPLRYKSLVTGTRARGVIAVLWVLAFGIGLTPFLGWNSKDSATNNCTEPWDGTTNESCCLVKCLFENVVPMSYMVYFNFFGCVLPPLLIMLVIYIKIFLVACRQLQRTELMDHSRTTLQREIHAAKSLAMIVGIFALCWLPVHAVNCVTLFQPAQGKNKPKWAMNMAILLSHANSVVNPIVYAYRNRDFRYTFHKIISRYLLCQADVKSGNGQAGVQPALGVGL
The experiment in a line: Adenosine receptor binding assay, A2B ([3H]-DPCPX). Conditions: ratio A2B vs A2A binding. On the procedure: Membranes prepared from CHO-K1 cells stably expressing Human AiAdoR (ES-010-M400UA), HEK-293 cells stably expressing human A2A AdoR (RBHA2AM400UA), HEK-293 cells stably expressing human A2B AdoR (ES-013-M400UA) and CHO-K1 cells stably expressing Human A3 AdoR (ES-012-M400UA) were purchased from PerkinElmer (Waltham, Mass., USA) and stored at −80° C. until use. Binding assays are performed using the radioligands. The final concentrations are as follows: [3H]-DPCPX (PerkinElmer, NET974001MC) at 1 nM for A1AdoR; [^3H]-CGS-21680 (PerkinElmer, NET1021250UC) at 6 nM for A2AAdoR, [3H]-DPCPX (PerkinElmer, NET974001MC) at 8 nM for A2BAdoR; [^3H]-HEMADO (ARC, Cat: ART1456) at 1 nM for A3AdoR. Testing compounds are diluted with DMSO to make 8-point 4-fold serial dilution. Nonspecific binding (Low control: LC) and total binding (High control: HC) are determined in the presence or absence of saturated cold ligand. Specific binding is calculated by subtracting nonspecific binding from total binding. All assays are performed in a final volume of 200 μl containing 1 μl of the test compound in DMSO, 100 μl of membrane preparation, and 99 μl of the radioligand in assay buffer (A1AdoR: 25 mM HEPES pH 7.4, 5 mM MgCl2, 1 mM CaCl2), 100 mM NaCl; A2AAdoR: 50 mM Tris HCl pH 7.4, 10 mM MgCl2, 1 mM EDTA; A2BAdoR: 50 mM HEPES pH 7.0, 5 mM MgCl2, 1 mM EDTA; A3AdoR: 25 HEPES pH 7.4, 10 mM MgCl2, 1 mM CaCl2), 0.5% BSA). The incubation is performed at room temperature with shaking at 300 rpm for 1 hour for A1AdoR, A2BAdoR and A3AdoR and 2 hours for A2AAdoR. After the incubation, the assay mixture is filtered through 96 GF/C filter plates (Perkin Elmer #6005174) using Perkin Elmer Filtermate Harvester, and then washed four times with ice-cold washing buffer (A1AdoR: 25 mM HEPES pH 7.4, 5 mM MgCl2, 1 mM CaCl2), 100 mM NaCl; A2AAdoR: 50 mM Tris HCl pH 7.4, 154 mM NaCl; A2BAdoR: 50 mM HEPES pH 6.5, 5 mM MgCl2, 1 mM EDTA, 0.2% BSA; A3AdoR: 50 mM Tris HCl pH 7.4). The filters are dried for 1 hour at 50° C. and [^3H] trapped on filter counted for radioactivity in Perkin Elmer Microscint 20 cocktail (#6013329) using Perkin Elmer MicroBeta2 Reader. The results are expressed as a percent inhibition of the control radioligand specific binding calculated using the following equation: % Inhibition=(1−(Assay well-Average_LC)/(Average_HC−Average_LC))×100%. Data are analyzed and IC50 is calculated using GraphPad Prism 5 and the model “log(inhibitor) vs. response—Variable slope”. The binding affinity of the compounds is determined by using the Cheng and Prusoff equation Ki=IC50/(1+[radioligand]/Kd).

For orientation: IC50 means the concentration needed to halve the response being measured. As a reminder, the EC50 is the concentration needed to bring the measured effect to its halfway point. Low readings indicate higher potency in that assay, high ones lower potency in that assay.

T1 sequence (P29274 whole entry): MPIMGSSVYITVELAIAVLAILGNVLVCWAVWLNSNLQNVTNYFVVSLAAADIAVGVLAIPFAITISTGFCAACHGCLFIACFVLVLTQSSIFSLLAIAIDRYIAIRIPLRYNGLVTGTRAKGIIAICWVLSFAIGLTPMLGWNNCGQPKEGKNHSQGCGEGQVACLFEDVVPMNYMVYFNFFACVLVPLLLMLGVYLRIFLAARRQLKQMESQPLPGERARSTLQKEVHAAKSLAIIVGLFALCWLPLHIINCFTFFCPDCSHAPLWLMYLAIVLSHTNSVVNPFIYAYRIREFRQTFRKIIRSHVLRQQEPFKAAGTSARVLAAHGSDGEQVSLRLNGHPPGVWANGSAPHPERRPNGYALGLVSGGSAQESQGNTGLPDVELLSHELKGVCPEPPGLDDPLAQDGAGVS

On to `Cc1noc2cc(F)c(N3CCN(CCn4c(C(N)=O)c(Cl)c5c4nc(N)n4nc(-c6ccccn6)nc54)CC3)cc12` [5-amino-9-chloro-7-[2-[4-(6-fluoro-3-methyl-1,2-benzoxazol-5-yl)piperazin-1-yl]ethyl]-2-(2-pyridyl)-[1,2,4]triazolo[1,5-c]pyrrolo[3,2-e]pyrimidine-8-carboxamide], for which the IC50 on human A2A AdoR was no more than 20 nM. The “A1/A2A Selectivity” value on A1AdoR was “a (greater than 1000)”. The EC50 in the test with phospho-CREB (pCREB) was no more than 20 nM. The “A2B/A2A Selectivity” value on human A2B AdoR is “a (greater than 1000)”.
